{
  "source": "patent US9988400B2",
  "about": "(Genentech, Inc., priority 2013, dated 2018)",
  "data": [
    {"molecular_target": "T1, HEK cells stably transfected with tetracycline inducible hNR1 and hNR2A (Homo sapiens, UniProt Q05586+Q12879)", "T1 construct": "expressed in transfected cells; host or cells: HEK cells, stably transfected, tetracycline/doxycycline inducible", "T1 sequence (Q12879 23-1464, other chains not shown)": "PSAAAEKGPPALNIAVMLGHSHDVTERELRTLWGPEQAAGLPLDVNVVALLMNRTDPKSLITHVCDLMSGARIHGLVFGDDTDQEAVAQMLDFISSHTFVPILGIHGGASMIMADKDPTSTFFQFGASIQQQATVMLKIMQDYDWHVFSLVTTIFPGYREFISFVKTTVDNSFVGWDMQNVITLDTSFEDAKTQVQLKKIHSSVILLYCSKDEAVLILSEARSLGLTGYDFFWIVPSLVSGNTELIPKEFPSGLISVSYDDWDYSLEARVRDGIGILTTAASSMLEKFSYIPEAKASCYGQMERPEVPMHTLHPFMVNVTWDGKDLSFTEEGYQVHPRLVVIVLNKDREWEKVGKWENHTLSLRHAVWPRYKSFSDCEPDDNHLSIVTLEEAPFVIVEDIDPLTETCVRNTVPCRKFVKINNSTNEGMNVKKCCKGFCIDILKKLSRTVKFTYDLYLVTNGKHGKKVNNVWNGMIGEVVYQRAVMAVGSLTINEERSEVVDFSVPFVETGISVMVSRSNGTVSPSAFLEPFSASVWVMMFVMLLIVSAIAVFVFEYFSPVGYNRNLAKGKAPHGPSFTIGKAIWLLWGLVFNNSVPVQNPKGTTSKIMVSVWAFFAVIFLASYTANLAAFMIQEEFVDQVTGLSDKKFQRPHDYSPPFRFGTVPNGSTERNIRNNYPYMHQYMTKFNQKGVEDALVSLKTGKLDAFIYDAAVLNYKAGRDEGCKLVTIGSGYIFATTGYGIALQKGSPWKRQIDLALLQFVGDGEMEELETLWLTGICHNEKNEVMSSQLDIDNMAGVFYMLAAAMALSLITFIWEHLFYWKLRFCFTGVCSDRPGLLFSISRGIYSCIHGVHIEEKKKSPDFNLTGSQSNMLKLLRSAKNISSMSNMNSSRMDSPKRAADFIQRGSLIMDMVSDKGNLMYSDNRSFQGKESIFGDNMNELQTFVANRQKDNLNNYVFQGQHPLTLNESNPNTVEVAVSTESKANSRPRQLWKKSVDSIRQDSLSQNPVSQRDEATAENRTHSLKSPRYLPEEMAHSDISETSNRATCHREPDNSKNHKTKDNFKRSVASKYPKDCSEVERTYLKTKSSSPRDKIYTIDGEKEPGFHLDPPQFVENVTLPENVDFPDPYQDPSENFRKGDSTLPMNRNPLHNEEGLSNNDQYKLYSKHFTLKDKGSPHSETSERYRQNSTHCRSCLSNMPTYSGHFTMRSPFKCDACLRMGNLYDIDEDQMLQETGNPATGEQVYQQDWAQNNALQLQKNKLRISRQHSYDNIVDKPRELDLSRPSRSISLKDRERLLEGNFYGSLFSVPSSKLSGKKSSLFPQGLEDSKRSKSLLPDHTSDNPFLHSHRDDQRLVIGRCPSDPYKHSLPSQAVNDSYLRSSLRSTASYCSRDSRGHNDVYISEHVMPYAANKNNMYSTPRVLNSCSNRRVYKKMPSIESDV", "assay": "Assay 1: Cell-Based Assay, cytosolic calcium response to positive allosteric modulators (with 30 μM glycine and 300 nM L-glutamate, EC30)", "details": "Table 3; cytosolic calcium response, with 30 μM glycine and 300 nM L-glutamate (EC30); — = no plateau was reached", "outline": "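Cells induced 24 h with 7.5 μg mL^−1 doxycycline plus 500 μM (+)-ketamine, loaded 60 min at 37 °C with calcium dye in Mg-free HBSS (1.8 mM Ca, probenecid, 10 μM (+)-ketamine, pH 7.15). Peak RFU over 5 min after compound addition, scaled to 100 μM L-glutamate (100%) and 0 μM (0%); four-parameter Hill fit for EC50, max % if no plateau.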", "units": {"EC50": "nM"}, "values": [
      {"smiles": "N#CC1CC1c1c(C(F)(F)F)sc2nc(Cc3cccc(C(F)(F)F)c3F)cc(=O)n12", "note": "(centres unmarked) [compound 162, 2-[7-[[2-fluoro-3-(trifluoromethyl)phenyl]methyl]-5-oxo-2-(trifluoromethyl)thiazolo[3,2-a]pyrimidin-3-yl]cyclopropanecarbonitrile]", "EC50": 199},
      {"smiles": "Cc1sc2nc(CN(C)c3ccc(Cl)cn3)cc(=O)n2c1C1CC1CO", "note": "(centres unmarked) [compound 163, 7-[[(5-chloro-2-pyridyl)-methyl-amino]methyl]-3-[2-(hydroxymethyl)cyclopropyl]-2-methyl-thiazolo[3,2-a]pyrimidin-5-one]", "EC50": 359},
      {"smiles": "CCNC(=O)c1c(C)sc2nc(Cn3nc(Cl)cc3Cl)cc(=O)n12", "note": "[compound 164, 7-[(3,5-dichloropyrazol-1-yl)methyl]-N-ethyl-2-methyl-5-oxo-thiazolo[3,2-a]pyrimidine-3-carboxamide]", "EC50": 562},
      {"smiles": "CCNC(=O)c1c(OCC(F)(F)F)sc2nc(Cc3cccc(C(F)(F)F)c3F)cc(=O)n12", "note": "[compound 165, N-ethyl-7-[[2-fluoro-3-(trifluoromethyl)phenyl]methyl]-5-oxo-2-(2,2,2-trifluoroethoxy)thiazolo[3,2-a]pyrimidine-3-carboxamide]", "EC50": 1370},
      {"smiles": "CC(=O)c1c(C(F)(F)F)sc2nc(Cn3nc(C(F)(F)F)cc3Cl)cc(=O)n12", "note": "[compound 166, 3-acetyl-7-[[5-chloro-3-(trifluoromethyl)pyrazol-1-yl]methyl]-2-(trifluoromethyl)thiazolo[3,2-a]pyrimidin-5-one]", "EC50": 2690},
      {"smiles": "CC(=O)c1c(C(F)(F)F)sc2nc(Cn3nc(Cl)cc3C(F)(F)F)cc(=O)n12", "note": "[compound 167, 3-acetyl-7-[[3-chloro-5-(trifluoromethyl)pyrazol-1-yl]methyl]-2-(trifluoromethyl)thiazolo[3,2-a]pyrimidin-5-one]", "EC50": 5260},
      {"smiles": "C=C(C)c1c(C(F)(F)F)sc2nc(Cn3nc(C(F)(F)F)cc3Cl)cc(=O)n12", "note": "[compound 169, 7-[[5-chloro-3-(trifluoromethyl)pyrazol-1-yl]methyl]-3-isopropenyl-2-(trifluoromethyl)thiazolo[3,2-a]pyrimidin-5-one]", "EC50": 7460},
      {"smiles": "Cc1sc2nc(Cn3nc(C(F)(F)F)cc3Cl)cc(=O)n2c1-c1ncc[nH]1", "note": "[compound 170, 7-[[5-chloro-3-(trifluoromethyl)pyrazol-1-yl]methyl]-3-(1H-imidazol-2-yl)-2-methyl-thiazolo[3,2-a]pyrimidin-5-one]", "EC50": 814},
      {"smiles": "O=c1cc(Cn2nc(C(F)(F)F)cc2Cl)nc2sc(C(F)(F)F)c(-c3cncnc3)n12", "note": "[compound 171, 7-[[5-chloro-3-(trifluoromethyl)pyrazol-1-yl]methyl]-3-pyrimidin-5-yl-2-(trifluoromethyl)thiazolo[3,2-a]pyrimidin-5-one]", "EC50": 1210},
      {"smiles": "O=c1cc(Cn2nc(Cl)cc2C(F)(F)F)nc2sc(C(F)(F)F)c(-c3cncnc3)n12", "note": "[compound 172, 7-[[3-chloro-5-(trifluoromethyl)pyrazol-1-yl]methyl]-3-pyrimidin-5-yl-2-(trifluoromethyl)thiazolo[3,2-a]pyrimidin-5-one]", "EC50": 27600},
      {"smiles": "O=c1cc(Cn2nc(Cl)cc2C(F)(F)F)nc2sc(C(F)(F)F)c(-c3cccnc3)n12", "note": "[compound 173, 7-[[3-chloro-5-(trifluoromethyl)pyrazol-1-yl]methyl]-3-(3-pyridyl)-2-(trifluoromethyl)thiazolo[3,2-a]pyrimidin-5-one]", "EC50": 24700},
      {"smiles": "CCNC(=O)c1c(OCC(F)(F)F)sc2nc(Cn3nc(C(F)(F)F)cc3Cl)cc(=O)n12", "note": "[compound 174, 7-[[5-chloro-3-(trifluoromethyl)pyrazol-1-yl]methyl]-N-ethyl-5-oxo-2-(2,2,2-trifluoroethoxy)thiazolo[3,2-a]pyrimidine-3-carboxamide]", "EC50": 1670},
      {"smiles": "CCNC(=O)c1c(OCC)sc2nc(Cn3nc(C(F)(F)F)cc3Cl)cc(=O)n12", "note": "[compound 175, 7-[[5-chloro-3-(trifluoromethyl)pyrazol-1-yl]methyl]-2-ethoxy-N-ethyl-5-oxo-thiazolo[3,2-a]pyrimidine-3-carboxamide]", "EC50": 864},
      {"smiles": "CCNC(=O)c1c(OCC)sc2nc(Cn3nc(Cl)cc3C(F)(F)F)cc(=O)n12", "note": "[compound 176, 7-[[3-chloro-5-(trifluoromethyl)pyrazol-1-yl]methyl]-2-ethoxy-N-ethyl-5-oxo-thiazolo[3,2-a]pyrimidine-3-carboxamide]", "EC50": 8920},
      {"smiles": "Cc1sc2nc(Cn3nc(C(F)(F)F)cc3Cl)cc(=O)n2c1C(=O)C(C)C", "note": "[compound 177, 7-[[5-chloro-3-(trifluoromethyl)pyrazol-1-yl]methyl]-2-methyl-3-(2-methylpropanoyl)thiazolo[3,2-a]pyrimidin-5-one]", "EC50": 123},
      {"smiles": "Cc1sc2nc(Cn3nc(Cl)cc3C(F)(F)F)cc(=O)n2c1C(=O)C(C)C", "note": "[compound 178, 7-[[3-chloro-5-(trifluoromethyl)pyrazol-1-yl]methyl]-2-methyl-3-(2-methylpropanoyl)thiazolo[3,2-a]pyrimidin-5-one]", "EC50": 354},
      {"smiles": "CC[C@@H](C)NC(=O)c1c(C)sc2nc(Cc3cccc(C(F)(F)F)c3F)cc(=O)n12", "note": "[compound 179, 7-[[2-fluoro-3-(trifluoromethyl)phenyl]methyl]-2-methyl-N-[(1R)-1-methylpropyl]-5-oxo-thiazolo[3,2-a]pyrimidine-3-carboxamide]", "EC50": 698},
      {"smiles": "CC[C@H](C)NC(=O)c1c(C)sc2nc(Cc3cccc(C(F)(F)F)c3F)cc(=O)n12", "note": "[compound 180, 7-[[2-fluoro-3-(trifluoromethyl)phenyl]methyl]-2-methyl-N-[(1S)-1-methylpropyl]-5-oxo-thiazolo[3,2-a]pyrimidine-3-carboxamide]", "EC50": 2940},
      {"smiles": "Cc1sc2nc(CN(C)c3ccc(F)cn3)cc(=O)n2c1C1CC1CO", "note": "(centres unmarked) [compound 182, 7-[[(5-fluoro-2-pyridyl)-methyl-amino]methyl]-3-[2-(hydroxymethyl)cyclopropyl]-2-methyl-thiazolo[3,2-a]pyrimidin-5-one]", "EC50": 175},
      {"smiles": "COCc1c(C)sc2nc(Cn3nc(C(F)(F)F)cc3Cl)cc(=O)n12", "note": "[compound 183, 7-[[5-chloro-3-(trifluoromethyl)pyrazol-1-yl]methyl]-3-(methoxymethyl)-2-methyl-thiazolo[3,2-a]pyrimidin-5-one]", "EC50": 5290},
      {"smiles": "O=c1cc(Cn2nc(C(F)(F)F)cc2Cl)nc2sc(C(F)(F)F)c(C3CC3)n12", "note": "[compound 184, 7-[[5-chloro-3-(trifluoromethyl)pyrazol-1-yl]methyl]-3-cyclopropyl-2-(trifluoromethyl)thiazolo[3,2-a]pyrimidin-5-one]", "EC50": 9990},
      {"smiles": "Cc1sc2nc(Cn3nc(C(F)(F)F)cc3Cl)cc(=O)n2c1CS(C)(=O)=O", "note": "[compound 185, 7-[[5-chloro-3-(trifluoromethyl)pyrazol-1-yl]methyl]-2-methyl-3-(methylsulfonylmethyl)thiazolo[3,2-a]pyrimidin-5-one]", "EC50": 17800},
      {"smiles": "Cc1sc2nc(Cn3nc(C(F)(F)F)cc3Cl)cc(=O)n2c1Cn1cccn1", "note": "[compound 186, 7-[[5-chloro-3-(trifluoromethyl)pyrazol-1-yl]methyl]-2-methyl-3-(pyrazol-1-ylmethyl)thiazolo[3,2-a]pyrimidin-5-one]", "EC50": 3850},
      {"smiles": "Cc1sc2nc(Cc3cc(C(F)(F)F)ccc3Cl)cc(=O)n2c1C1CC1C#N", "note": "(centres unmarked) [compound 187, 2-[7-[[2-chloro-5-(trifluoromethyl)phenyl]methyl]-2-methyl-5-oxo-thiazolo[3,2-a]pyrimidin-3-yl]cyclopropanecarbonitrile]", "EC50": 11100},
      {"smiles": "Cc1sc2nc(Cn3nc(C(F)(F)F)cc3Cl)cc(=O)n2c1C1CCC1", "note": "[compound 188, 7-[[5-chloro-3-(trifluoromethyl)pyrazol-1-yl]methyl]-3-cyclobutyl-2-methyl-thiazolo[3,2-a]pyrimidin-5-one]", "EC50": 3140},
      {"smiles": "Cc1sc2nc(Cn3nc(Cl)cc3C(F)(F)F)cc(=O)n2c1C1CCC1", "note": "[compound 189, 7-[[3-chloro-5-(trifluoromethyl)pyrazol-1-yl]methyl]-3-cyclobutyl-2-methyl-thiazolo[3,2-a]pyrimidin-5-one]", "EC50": 7450},
      {"smiles": "Cc1sc2nc(CN(C)c3ccc(Cl)cn3)cc(=O)n2c1C1CC1C#N", "note": "(centres unmarked) [compound 190, 2-[7-[[(5-chloro-2-pyridyl)-methyl-amino]methyl]-2-methyl-5-oxo-thiazolo[3,2-a]pyrimidin-3-yl]cyclopropanecarbonitrile]", "EC50": 779},
      {"smiles": "Cc1sc2nc(Cn3nc(C(F)(F)F)cc3Cl)cc(=O)n2c1Cl", "note": "[compound 192, 3-chloro-7-[[5-chloro-3-(trifluoromethyl)pyrazol-1-yl]methyl]-2-methyl-thiazolo[3,2-a]pyrimidin-5-one]", "EC50": 198},
      {"smiles": "Cc1sc2nc(Cn3nc(Cl)cc3C(F)(F)F)cc(=O)n2c1Cl", "note": "[compound 193, 3-chloro-7-[[3-chloro-5-(trifluoromethyl)pyrazol-1-yl]methyl]-2-methyl-thiazolo[3,2-a]pyrimidin-5-one]", "EC50": 243},
      {"smiles": "COc1cc(F)c(F)cc1Cc1cc(=O)n2c(C3CC3C#N)c(C)sc2n1", "note": "(centres unmarked) [compound 194, 2-[7-[(4,5-difluoro-2-methoxy-phenyl)methyl]-2-methyl-5-oxo-thiazolo[3,2-a]pyrimidin-3-yl]cyclopropanecarbonitrile]", "EC50": 1280},
      {"smiles": "CCN(Cc1cc(=O)n2c(C3CC3C#N)c(C)sc2n1)c1ccc(F)cn1", "note": "(centres unmarked) [compound 195, 2-[7-[[ethyl-(5-fluoro-2-pyridyl)amino]methyl]-2-methyl-5-oxo-thiazolo[3,2-a]pyrimidin-3-yl]cyclopropanecarbonitrile]", "EC50": 74.2},
      {"smiles": "CCN(Cc1cc(=O)n2c(C3CC3CO)c(C)sc2n1)c1ccc(Cl)cn1", "note": "(centres unmarked) [compound 196, 7-[[(5-chloro-2-pyridyl)-ethyl-amino]methyl]-3-[2-(hydroxymethyl)cyclopropyl]-2-methyl-thiazolo[3,2-a]pyrimidin-5-one]", "EC50": 64.2}
    ]}
  ]
}
